Test results reported in article PMC11247486, “Improving the In Vivo Stability of [^52Mn]Mn(II) Complexes with 18-Membered Macrocyclic Chelators for PET Imaging” (Journal of Medicinal Chemistry, 2024).
Read-outs that look alike come from different tables or passages of the source.

Experiments:
[1] = Transmetalation (dissociation) kinetics of the Mn(II) complexes with Cu2+; type: physicochemical; conditions: 0.15 M NaCl, 25 °C
Description: There is a wide consensus among the coordination chemistry community that kinetic inertness is more important for the safe use of metal complexes for imaging applications than thermodynamic stability.[8],[49],[50] Thus, we conducted a detailed investigation of the transmetalation kinetics of the Mn-PYAN and Mn-CHXPYAN complexes, by following their exchange reactions with Cu^2+ in the pH range of 2.5–4.5 (eq 3). [drawing 3] 3
All reactions were carried out in the presence of a large excess of Cu^2+ in order to guarantee the pseudo-first-order kinetic conditions. The transmetalation of Mn-PYAN in the pH range ∼2.0–4.5 is very fast, and thus the rates of the reactions were measured using the stopped-flow technique. Conversely, the exchange reactions of the Mn-CHXPYAN complex are slow and could be studied by using conventional methods. The transmetalation reactions of Mn-PYAN and Mn-CHXPYAN were monitored by following the formation of the corresponding Cu(II) complexes at 295 nm.
The kd values increase upon increase in [H^+] and are independent of the concentration of Cu^2+ as it was found for Mn-PCTA, Mn-PC3AM, and Mn-bispidine complexes.[49],[51] […] The increase in the kd values with increasing H^+ concentration can be interpreted in terms of the extremely slow spontaneous (k0, eq 4) and the proton-assisted (k*[Mn(HL), eq 6) dissociation of Mn(II) complexes. The saturation behavior of the plots of kd versus [H^+] (Figure 5) is characteristic for the equilibrium formation and the accumulation of the *[Mn(HL)] intermediate characterized by the *KH protonation constant (eq 5). The analysis of the rate constants obtained for Mn-CHXPYAN indicates a second-order dependence of kd on [H^+], which can be explained by the proton-assisted dissociation of the *[Mn(HL)] intermediate (k^H*[Mn(HL)], eq 7). [drawing 4] 4 [drawing 5] 5 [drawing 6] 6 [drawing 7] 7
In the presence of excess of the exchanging ion, the transmetalation can be treated as a pseudo-first-order process, and the rate of reactions can be expressed with eq 8, where kd is a pseudo-first-order rate constant and [MnL]t is the total concentration of the complex. [drawing 8] 8
Through consideration of all the possible pathways, the rate of the transmetalation of Mn-PYAN and Mn-CHXPYAN with Cu^2+ can be expressed by eq 9 [drawing 9] 9 Considering the total concentration of the Mn(II) complex ([MnL]t = [MnL] + [*Mn(HL)], as well as the equation defining the protonation constant for the formation of the *[Mn(HL)] intermediate (eq 5) and eq 8, the pseudo-first-order rate constant can be expressed as follows [drawing 10] 10 where k1 = k*[Mn(HL)] × *KH and k2 = k^H*[Mn(HL)] × *KH. The rate and protonation constants characterizing the transmetalation of Mn-PYAN and Mn-CHXPYAN with Cu^2+ have been calculated by fitting the kd values presented in Figure 5 to eq 10 and the values obtained are compared with the corresponding values of Mn-DOTA, Mn-DO3A, Mn-PCTA, Mn-PC3AM^H, and Mn-bispidine in Table 3.
Rates of the metal exchange reactions of Mn-PYAN and Mn-CHXPYAN with Cu^2+ were measured by spectrophotometry by following the formation of the related Cu(II) complexes at 295 nm with an Applied Photophysics DX-17MV stopped-flow instrument and PerkinElmer Lambda 365 UV–vis spectrophotometer using 1.0 cm cells, respectively. The concentration of Mn-PYAN and Mn-CHXPYAN was 1.0 × 10^–4 M, whereas the concentration of Cu^2+ was 10 and 20 times higher in order to guarantee pseudo-first-order conditions. The temperature was maintained at 25 °C and the ionic strength of the solutions was kept constant with 0.15 M NaCl. The exchange rates were studied in the pH range of ca. 2.0–4.5. To keep the pH values constant, monochloroacetic acid (pH range 2.0–3.3), 1,4-dimethylpiperazine (pH range 3.3–4.1), and N-methylpiperazine (pH range 4.1–4.5) buffers were used (0.01 M). […]

[2] = cited from earlier work
[3] = cited from earlier work; remark: listed apart in the source
[4] = pH-potentiometric titrations, stability constants of the Mn(II) complexes; type: physicochemical; conditions: 0.15 M NaCl, 25°C
Description: The stability constants of the Mn(II) complexes with PYAN and CHXPYAN defined by eq 2 were also determined through pH-potentiometric titrations. [drawing 2] 2
(§1) The protonation constants of PYAN and CHXPYAN and the stability constants of Mn(II) complexes were determined by pH-potentiometric titrations. The metal-to-ligand concentration ratio was 1:1 (the concentration of the ligand was generally 0.002 M). For the pH measurements and titrations, a Metrohm 888 Titrando titration workstation and Metrohm-6.0234.110 combined electrode was used. Equilibrium measurements were carried out at a constant ionic strength (0.15 M NaCl) in 6 mL samples at 25 °C. The solutions were stirred, and N2 was bubbled through them. The titrations were made in the pH range of 1.7–12.0. KH-phthalate (pH = 4.005) and borax (pH = 9.177) buffers were used to calibrate the pH meter. For the calculation of [H^+] from the measured pH values, the method proposed by Irving et al. was used as follows.[59] A 0.01 M HCl solution was titrated with a standardized NaOH solution at 0.15 M NaCl ionic strength. The differences (A) between the measured (pHread) and calculated pH (−log[H^+]) values were used to obtain the equilibrium H^+ concentration from the pH values measured in the titration experiments (A = 0.04). For the equilibrium calculations, the stoichiometric water ionic product (pKw) was also needed to calculate the [OH^–] values under basic conditions. The VNaOH – pHread data pairs of the HCl–NaOH titration obtained in the pH range of 10.5–12.0 were used to calculate the pKw value (pKw = 13.77). The protonation and stability constants were calculated with the PSEQUAD program.[60]

[5] = pH-potentiometric titrations, ligand protonation constants; type: physicochemical; conditions: 0.15 M NaCl, 25°C
Description: Chelator protonation constants (log Ki^H) defined by eq 1 were determined using pH-potentiometric titrations, which afforded four protonation constants for each chelator attributed to the protonation of the amine N atoms (Table 2, and standard deviations are shown in parentheses). [drawing 1] 1 where i = 1, 2...4. The first two protonation constants adopt nearly identical values for both chelators, while the third and fourth protonation constants are much lower for CHXPYAN than for PYAN, which is consistent with the results obtained by Jackels et al.[25] The high rigidity of CHXPYAN likely forces the protonated amines to be placed at a shorter distance than in PYAN, reducing the values of log K3^H and log K4^H for the cyclohexyl derivative due to electrostatic effects. […] The structurally related 18-membered macrocycle 18-ane-N6 is characterized by a higher basicity compared with PYAN and CHXPYAN, as expected due to the increased number of amine N atoms and its higher flexibility.[43]
as §1

[6] = 1H NMR relaxometry (relaxivity as a function of pH); type: physicochemical; conditions: pH 3, 61 MHz, 25 °C, after dissociation of the complexes
Text: The studies reported by Branco assumed the formation of a protonated [Mn(HL)]^3+ species for the Mn-PYAN complex characterized by protonation constant log KMnLH = 5.19 (KMnLH = [MnHL]/[MnL] × [H^+]).[42] However, our pH-potentiometric data could be fitted very well without considering the formation of protonated species or hydroxo-complexes. In order to confirm that the equilibrium model used to fit the pH-potentiometric data was correct, we measured the relaxivity (r1p) of aqueous solutions of the complexes as a function of pH (Figure 4). Relaxivity measures the ability of a paramagnetic solute to enhance the longitudinal relaxation rate of solvent water molecules, normalized for a 1 mM concentration of the paramagnetic ion.[45] The r1p values measured around neutral pH values (0.83 and 1.40 mM^–1 s^–1 at 61 MHz and 25 °C for Mn-PYAN and Mn-CHXPYAN, respectively) are typical of complexes that lack one or more water molecules in the inner coordination sphere, the observed relaxivity being the result of the outer-sphere contribution.[46] Relaxivity is fairly constant in the pH range of 6–9 but increases below pH ∼ 6 due to complex dissociation, reaching a relaxivity of 6.00 mM^–1 s^–1 at pH 3, 61 MHz, and 25 °C that is characteristic of the [Mn(H2O)6]^2+ complex.[47] The relaxivity profile matches the speciation diagrams calculated using the equilibrium constants obtained by pH potentiometry very well, which provides support for the equilibrium model used to fit the potentiometric data. It is worth noting that complex dissociation takes place at a lower pH for Mn-CHXPYAN than for Mn-PYAN, as expected, considering their pMn values.
The relaxivity values were calculated from the longitudinal relaxation time of H2O protons (T1) measured at 61 MHz on a Stelar relaxometer connected to a Bruker WP80 NMR electromagnet adapted to variable-field measurements (15–80 MHz proton Larmor frequency). […] The longitudinal relaxation time was measured with the “inversion recovery” method (180°–τ–90°) by using 12 different τ values with a typical 90° pulse width of 10.7 μs, 4 scans. […]

kd at pH = 7.4 ([1]; Mn(II) complex of the chelator)	log*KH ([1]; protonation constant of the *[Mn(HL)] intermediate)	pMn ([4]; pMn = −log[Mn]free when [Mn^2+] = [L] = 10 μM at pH = 7.4)	log KMnL ([4]; stability constant of the Mn(II) complex)	log K1^H [5]	log K2^H [5]	log K3^H [5]	log K4^H [5]	relaxivity [6] [mM^–1 s^–1]	Compound	k1 ([1]; Mn(II) complex of the chelator) [M^–1 s^–1]	log K1^H ([2]; 0.1 M KNO3)	log K2^H ([2]; 0.1 M KNO3)	log K3^H ([2]; 0.1 M KNO3)	log K4^H ([2]; 0.1 M KNO3)	log K1^H ([2]; 0.2 M KCl)	log K2^H ([2]; 0.2 M KCl)	log K3^H ([2]; 0.2 M KCl)	log K4^H ([2]; 0.2 M KCl)	log KMnL ([3]; 0.1 M KNO3)	log KMnL ([3]; 0.2 M KCl)
3.3 × 10^–5 s^–1	2.23 (4)	7.18	11.93(3)	9.02(1)	8.27(1)	6.06(1)	5.18(2)	–	c1cc2nc(c1)CNCCNCc1cccc(n1)CNCCNC2 [PYAN, 3,6,10,13-tetraaza-1,8(2,6)-dipyridinacyclotetradecaphane]	827 ± 54	8.99	8.22	6.03	5.34	9.13	8.32	6.12	5.24	11.79	12.5
–	–	–	–	–	–	–	–	6.00	O.O.O.O.O.O.[Mn+2] [[Mn(H2O)6]^2+]	–	–	–	–	–	–	–	–	–	–	–
